Literature values in patent US9597306B1, “Fumarate compounds, pharmaceutical compositions thereof, and methods of use” (priority 2015, dated 2017).

aqueous solubility: poor
SMILES: COC(=O)/C=C/C(=O)OC [DMF, dimethylfumarate]
